From ChEMBL document CHEMBL4507273 (2021)

Assays:
[1] = target: D(3) dopamine receptor (Homo sapiens, UniProt P35462); experiment: GPCRScan assay: inhibition of D3; design: radioligand conc. used [nm] 0.5 – 1.8, parental cells HEKT
[2] = target: T1, Muscarinic acetylcholine receptor M5 (Homo sapiens, UniProt P08912); experiment: GPCRScan assay: inhibition of M5; design: radioligand conc. used [nm] 0.2 – 1.0, parental cells stable CHO
T1 sequence (P08912 whole entry): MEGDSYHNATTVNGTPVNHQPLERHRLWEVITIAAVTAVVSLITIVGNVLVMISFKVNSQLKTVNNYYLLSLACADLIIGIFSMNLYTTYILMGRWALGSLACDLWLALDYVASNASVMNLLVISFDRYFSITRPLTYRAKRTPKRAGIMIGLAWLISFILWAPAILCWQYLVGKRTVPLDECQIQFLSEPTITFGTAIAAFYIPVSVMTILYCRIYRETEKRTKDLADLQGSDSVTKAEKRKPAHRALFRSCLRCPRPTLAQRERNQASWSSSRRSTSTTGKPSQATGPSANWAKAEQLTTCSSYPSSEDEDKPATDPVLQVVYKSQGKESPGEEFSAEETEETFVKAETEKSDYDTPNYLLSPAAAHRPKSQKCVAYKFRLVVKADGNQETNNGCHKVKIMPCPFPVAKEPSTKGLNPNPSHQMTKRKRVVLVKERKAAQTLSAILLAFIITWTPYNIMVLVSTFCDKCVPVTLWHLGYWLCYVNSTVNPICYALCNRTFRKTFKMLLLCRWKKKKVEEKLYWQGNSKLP

[3] = target: RAC-gamma serine/threonine-protein kinase (Homo sapiens) (UniProt Q9Y243); settings: Compound concentration 1000.0 nM
RAC-gamma serine/threonine-protein kinase (Homo sapiens), sequence (Q9Y243 whole entry): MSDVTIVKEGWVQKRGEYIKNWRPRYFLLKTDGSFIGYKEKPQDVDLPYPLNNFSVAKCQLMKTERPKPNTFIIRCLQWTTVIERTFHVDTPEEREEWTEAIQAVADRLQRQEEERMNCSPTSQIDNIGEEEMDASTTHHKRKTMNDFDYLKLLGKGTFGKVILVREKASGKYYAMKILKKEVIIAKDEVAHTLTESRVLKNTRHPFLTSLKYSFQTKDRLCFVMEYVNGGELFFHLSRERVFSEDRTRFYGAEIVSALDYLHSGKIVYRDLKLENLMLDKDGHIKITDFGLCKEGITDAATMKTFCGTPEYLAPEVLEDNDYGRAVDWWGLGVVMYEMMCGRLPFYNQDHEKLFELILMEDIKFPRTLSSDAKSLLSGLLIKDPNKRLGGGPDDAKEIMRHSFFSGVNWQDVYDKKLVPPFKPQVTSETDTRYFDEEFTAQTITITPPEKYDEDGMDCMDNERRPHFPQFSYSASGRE

[4] = target: Cyclin-dependent kinase-like 2 (Homo sapiens) (UniProt Q92772); settings: Compound concentration 1000.0 nM
[5] = tested on: Epidermal growth factor receptor (Homo sapiens), P00533 [L858R]; settings: Compound concentration 1000.0 nM
[6] = tested on: Epidermal growth factor receptor (Homo sapiens), P00533 [L858R,T790M]; settings: Compound concentration 1000.0 nM
[7] = target: Ephrin type-A receptor 2 (Homo sapiens) (UniProt P29317); settings: Compound concentration 1000.0 nM
Ephrin type-A receptor 2 (Homo sapiens), sequence (P29317 whole entry): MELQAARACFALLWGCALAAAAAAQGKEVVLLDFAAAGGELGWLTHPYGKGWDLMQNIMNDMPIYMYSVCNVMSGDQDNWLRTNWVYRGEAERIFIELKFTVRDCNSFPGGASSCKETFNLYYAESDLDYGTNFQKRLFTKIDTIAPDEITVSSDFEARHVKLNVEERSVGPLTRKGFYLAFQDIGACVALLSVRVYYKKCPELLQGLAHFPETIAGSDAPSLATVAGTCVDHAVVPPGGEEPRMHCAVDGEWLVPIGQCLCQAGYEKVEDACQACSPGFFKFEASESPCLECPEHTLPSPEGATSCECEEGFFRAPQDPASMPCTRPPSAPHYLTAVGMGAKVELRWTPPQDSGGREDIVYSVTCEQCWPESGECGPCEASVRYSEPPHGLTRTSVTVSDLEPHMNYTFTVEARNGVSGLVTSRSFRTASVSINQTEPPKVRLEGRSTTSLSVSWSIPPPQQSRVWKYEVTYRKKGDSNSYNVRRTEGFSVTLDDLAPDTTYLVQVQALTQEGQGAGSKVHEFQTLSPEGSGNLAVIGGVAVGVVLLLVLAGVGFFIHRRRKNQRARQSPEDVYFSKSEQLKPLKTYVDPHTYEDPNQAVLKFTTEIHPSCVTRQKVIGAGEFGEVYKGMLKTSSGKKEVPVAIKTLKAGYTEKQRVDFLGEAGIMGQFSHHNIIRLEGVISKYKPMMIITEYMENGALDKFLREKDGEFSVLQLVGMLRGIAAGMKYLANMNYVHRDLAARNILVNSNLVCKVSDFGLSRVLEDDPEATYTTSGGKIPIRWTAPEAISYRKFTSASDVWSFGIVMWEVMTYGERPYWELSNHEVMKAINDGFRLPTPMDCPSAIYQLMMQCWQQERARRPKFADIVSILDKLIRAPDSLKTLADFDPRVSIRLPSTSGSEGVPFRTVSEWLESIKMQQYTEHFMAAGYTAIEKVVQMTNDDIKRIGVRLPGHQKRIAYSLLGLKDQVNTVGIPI

[8] = target: Receptor tyrosine-protein kinase erbB-3 (Homo sapiens) (UniProt P21860); settings: Compound concentration 1000.0 nM
[9] = target: Receptor tyrosine-protein kinase erbB-4 (Homo sapiens) (UniProt Q15303); settings: Compound concentration 1000.0 nM
[10] = target: Serine/threonine-protein kinase/endoribonuclease IRE1 (Homo sapiens) (UniProt O75460); settings: Compound concentration 1000.0 nM
[11] = target: Receptor-type tyrosine-protein kinase FLT3 (Homo sapiens) (UniProt P36888); settings: Compound concentration 1000.0 nM
[12] = target: Homeodomain-interacting protein kinase 2 (Homo sapiens) (UniProt Q9H2X6); settings: Compound concentration 1000.0 nM
[13] = target: Insulin receptor (Homo sapiens) (UniProt P06213); settings: Compound concentration 1000.0 nM
[14] = tested on: Mast/stem cell growth factor receptor Kit (Homo sapiens), P10721 [V559D,V654A]; settings: Compound concentration 1000.0 nM
[15] = target: Tyrosine-protein kinase Lck (Homo sapiens) (UniProt P06239); settings: Compound concentration 1000.0 nM
Tyrosine-protein kinase Lck (Homo sapiens), sequence (P06239 2-509 limits assumed): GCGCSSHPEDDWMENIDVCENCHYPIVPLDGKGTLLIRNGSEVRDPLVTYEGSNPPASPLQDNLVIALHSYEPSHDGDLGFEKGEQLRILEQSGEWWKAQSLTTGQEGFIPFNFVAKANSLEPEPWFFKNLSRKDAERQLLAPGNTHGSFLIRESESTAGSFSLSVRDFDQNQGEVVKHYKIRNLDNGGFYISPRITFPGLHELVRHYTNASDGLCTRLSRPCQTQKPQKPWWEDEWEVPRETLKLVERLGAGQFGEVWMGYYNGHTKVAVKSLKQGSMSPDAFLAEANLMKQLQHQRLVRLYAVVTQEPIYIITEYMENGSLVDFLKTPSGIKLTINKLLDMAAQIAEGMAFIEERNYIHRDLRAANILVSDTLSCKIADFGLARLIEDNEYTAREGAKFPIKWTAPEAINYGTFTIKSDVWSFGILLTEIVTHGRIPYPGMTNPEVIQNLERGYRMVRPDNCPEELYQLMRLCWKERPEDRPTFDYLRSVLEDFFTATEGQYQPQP

[16] = target: LIM domain kinase 1 (Homo sapiens) (UniProt P53667); settings: Compound concentration 1000.0 nM
[17] = target: MAP/microtubule affinity-regulating kinase 4 (Homo sapiens) (UniProt Q96L34); settings: Compound concentration 1000.0 nM
[18] = target: Microtubule-associated serine/threonine-protein kinase 1 (Homo sapiens) (UniProt Q9Y2H9); settings: Compound concentration 1000.0 nM
[19] = target: Myosin light chain kinase (Homo sapiens) (UniProt Q32MK0); settings: Compound concentration 1000.0 nM
[20] = target: Mitogen-activated protein kinase kinase kinase 9 (Homo sapiens) (UniProt P80192); settings: Compound concentration 1000.0 nM
Mitogen-activated protein kinase kinase kinase 9 (Homo sapiens), sequence (P80192 whole entry, looked up): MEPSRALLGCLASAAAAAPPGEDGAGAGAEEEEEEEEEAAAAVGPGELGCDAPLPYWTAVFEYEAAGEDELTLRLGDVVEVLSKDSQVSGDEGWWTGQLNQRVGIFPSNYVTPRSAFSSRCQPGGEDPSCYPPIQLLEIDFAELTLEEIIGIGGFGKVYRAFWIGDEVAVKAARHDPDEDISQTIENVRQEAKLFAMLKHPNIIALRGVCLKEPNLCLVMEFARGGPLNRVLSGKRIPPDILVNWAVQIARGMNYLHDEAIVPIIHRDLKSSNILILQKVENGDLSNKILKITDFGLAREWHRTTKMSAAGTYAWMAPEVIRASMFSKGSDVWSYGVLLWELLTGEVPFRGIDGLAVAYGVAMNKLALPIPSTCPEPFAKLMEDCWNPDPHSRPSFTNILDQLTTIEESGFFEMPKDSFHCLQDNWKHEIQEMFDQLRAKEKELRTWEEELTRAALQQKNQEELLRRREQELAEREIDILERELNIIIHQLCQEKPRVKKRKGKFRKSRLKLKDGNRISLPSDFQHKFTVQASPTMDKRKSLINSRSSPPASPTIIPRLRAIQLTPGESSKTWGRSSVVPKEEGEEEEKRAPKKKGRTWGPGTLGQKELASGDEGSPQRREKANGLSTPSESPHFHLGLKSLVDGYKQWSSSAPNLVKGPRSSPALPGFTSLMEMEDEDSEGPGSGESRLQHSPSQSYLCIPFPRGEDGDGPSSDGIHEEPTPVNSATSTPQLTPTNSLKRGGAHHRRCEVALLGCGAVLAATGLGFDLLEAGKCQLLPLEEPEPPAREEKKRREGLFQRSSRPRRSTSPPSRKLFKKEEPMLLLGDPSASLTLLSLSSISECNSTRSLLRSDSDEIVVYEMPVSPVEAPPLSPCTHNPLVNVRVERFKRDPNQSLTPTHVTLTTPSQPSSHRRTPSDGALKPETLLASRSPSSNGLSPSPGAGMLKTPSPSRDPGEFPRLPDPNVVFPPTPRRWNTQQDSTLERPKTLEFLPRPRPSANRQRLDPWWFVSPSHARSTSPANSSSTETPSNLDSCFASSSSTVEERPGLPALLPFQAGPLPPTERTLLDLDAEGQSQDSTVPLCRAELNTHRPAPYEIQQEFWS

[21] = target: 3-phosphoinositide-dependent protein kinase 1 (Homo sapiens) (UniProt O15530); settings: Compound concentration 1000.0 nM
3-phosphoinositide-dependent protein kinase 1 (Homo sapiens), sequence (O15530 whole entry, the tested form may be a part): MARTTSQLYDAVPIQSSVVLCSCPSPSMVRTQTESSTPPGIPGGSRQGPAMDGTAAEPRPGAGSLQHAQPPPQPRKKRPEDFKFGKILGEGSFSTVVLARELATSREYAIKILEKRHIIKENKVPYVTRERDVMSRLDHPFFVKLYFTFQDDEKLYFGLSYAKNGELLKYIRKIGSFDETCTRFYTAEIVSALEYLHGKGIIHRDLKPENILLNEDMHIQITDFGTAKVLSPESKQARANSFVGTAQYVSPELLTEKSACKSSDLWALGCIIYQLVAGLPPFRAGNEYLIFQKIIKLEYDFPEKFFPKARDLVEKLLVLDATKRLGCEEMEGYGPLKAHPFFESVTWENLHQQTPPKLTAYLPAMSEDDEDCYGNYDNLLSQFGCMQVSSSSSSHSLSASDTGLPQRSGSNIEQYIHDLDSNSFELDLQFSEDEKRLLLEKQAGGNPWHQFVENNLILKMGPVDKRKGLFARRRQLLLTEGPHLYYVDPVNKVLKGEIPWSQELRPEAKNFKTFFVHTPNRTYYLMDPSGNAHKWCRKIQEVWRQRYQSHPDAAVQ

[22] = target: Phosphatidylinositol 3-kinase C2 domain-containing subunit gamma (Homo sapiens) (UniProt O75747); settings: Compound concentration 1000.0 nM
[23] = tested on: Phosphatidylinositol 4,5-bisphosphate 3-kinase catalytic subunit alpha isoform (Homo sapiens), P42336 [E545A]; settings: Compound concentration 1000.0 nM
[24] = tested on: Phosphatidylinositol 4,5-bisphosphate 3-kinase catalytic subunit alpha isoform (Homo sapiens), P42336 [I800L]; settings: Compound concentration 1000.0 nM
[25] = target: cAMP-dependent protein kinase catalytic subunit beta (Homo sapiens) (UniProt P22694); settings: Compound concentration 1000.0 nM
[26] = target: Membrane-associated tyrosine- and threonine-specific cdc2-inhibitory kinase (Homo sapiens) (UniProt Q99640); settings: Compound concentration 1000.0 nM
[27] = target: Protein kinase C delta type (Homo sapiens) (UniProt Q05655); settings: Compound concentration 1000.0 nM
[28] = target: Proto-oncogene tyrosine-protein kinase receptor Ret (Homo sapiens) (UniProt P07949); settings: Compound concentration 1000.0 nM
[29] = target: Receptor-interacting serine/threonine-protein kinase 2 (Homo sapiens) (UniProt O43353); settings: Compound concentration 1000.0 nM
[30] = target: Ribosomal protein S6 kinase alpha-4 (Homo sapiens) (UniProt O75676); settings: Compound concentration 1000.0 nM
Ribosomal protein S6 kinase alpha-4 (Homo sapiens), sequence (O75676 whole entry, looked up): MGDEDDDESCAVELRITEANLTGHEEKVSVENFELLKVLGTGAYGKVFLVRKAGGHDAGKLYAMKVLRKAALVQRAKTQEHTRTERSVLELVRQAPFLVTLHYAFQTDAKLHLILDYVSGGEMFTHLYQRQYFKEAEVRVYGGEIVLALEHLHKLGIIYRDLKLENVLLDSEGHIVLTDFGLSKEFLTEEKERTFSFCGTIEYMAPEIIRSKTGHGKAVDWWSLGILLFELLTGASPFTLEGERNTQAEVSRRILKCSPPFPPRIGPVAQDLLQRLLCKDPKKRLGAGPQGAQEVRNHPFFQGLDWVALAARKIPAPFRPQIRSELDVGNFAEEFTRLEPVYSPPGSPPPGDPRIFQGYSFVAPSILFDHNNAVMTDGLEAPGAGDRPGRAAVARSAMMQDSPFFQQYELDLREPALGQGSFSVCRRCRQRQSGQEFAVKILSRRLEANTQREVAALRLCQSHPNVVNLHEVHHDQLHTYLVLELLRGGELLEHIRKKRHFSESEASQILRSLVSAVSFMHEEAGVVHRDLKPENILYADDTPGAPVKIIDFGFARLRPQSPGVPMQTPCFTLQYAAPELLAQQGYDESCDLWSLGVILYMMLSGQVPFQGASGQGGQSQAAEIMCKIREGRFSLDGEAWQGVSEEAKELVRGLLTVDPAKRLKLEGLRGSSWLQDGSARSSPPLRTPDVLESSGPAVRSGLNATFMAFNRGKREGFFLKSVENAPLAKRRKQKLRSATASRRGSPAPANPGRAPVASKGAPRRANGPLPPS

[31] = target: Ribosomal protein S6 kinase alpha-1 (Homo sapiens) (UniProt Q15418); settings: Compound concentration 1000.0 nM
[32] = target: Ribosomal protein S6 kinase alpha-3 (Homo sapiens) (UniProt P51812); settings: Compound concentration 1000.0 nM
[33] = target: Ribosomal protein S6 kinase alpha-6 (Homo sapiens) (UniProt Q9UK32); settings: Compound concentration 1000.0 nM
[34] = target: Serine/threonine-protein kinase SBK1 (Homo sapiens) (UniProt Q52WX2); settings: Compound concentration 1000.0 nM
[35] = target: Uncharacterized serine/threonine-protein kinase SBK3 (Homo sapiens) (UniProt P0C264); settings: Compound concentration 1000.0 nM
Uncharacterized serine/threonine-protein kinase SBK3 (Homo sapiens), sequence (P0C264 whole entry): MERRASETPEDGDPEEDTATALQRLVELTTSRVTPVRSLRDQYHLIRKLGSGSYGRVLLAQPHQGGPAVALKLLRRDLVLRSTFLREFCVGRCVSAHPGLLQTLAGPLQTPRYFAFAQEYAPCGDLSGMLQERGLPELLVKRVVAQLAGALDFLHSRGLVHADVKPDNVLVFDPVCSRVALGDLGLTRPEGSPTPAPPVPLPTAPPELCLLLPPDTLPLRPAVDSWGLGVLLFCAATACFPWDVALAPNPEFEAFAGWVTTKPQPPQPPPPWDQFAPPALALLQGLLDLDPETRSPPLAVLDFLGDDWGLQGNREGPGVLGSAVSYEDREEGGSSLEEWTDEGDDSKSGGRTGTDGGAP

[36] = target: SRSF protein kinase 2 (Homo sapiens) (UniProt P78362); settings: Compound concentration 1000.0 nM
[37] = target: Tyrosine-protein kinase Yes (Homo sapiens) (UniProt P07947); settings: Compound concentration 1000.0 nM
[38] = target: 5-hydroxytryptamine receptor 2A (Homo sapiens, UniProt P28223); settings: Compound concentration 10.0 uM

Row | Compound | Ki [1] | Ki ([2]; read-out: Ki) | residual activity [3] | residual activity [4] | residual activity [5] | residual activity [6] | residual activity [7] | residual activity [8] | residual activity [9] | residual activity [10] | residual activity [11] | residual activity [12] | residual activity [13] | residual activity [14] | residual activity [15] | residual activity [16] | residual activity [17] | residual activity [18] | residual activity [19] | residual activity [20] | other results
1 | CNCc1ccccc1-c1csc([C@H](C)Nc2nc(C)nc3cc(OC)c(OC)cc23)c1 [BAY-294] | 869 nM | 524 nM | 95% | 100% | 100% | 87% | 80% | 87% | 100% | 100% | 100% | 76% | 89% | 100% | 100% | 100% | 100% | 96% | 100% | 100% | residual activity [21]: 100%; residual activity [22]: 100%; residual activity [23]: 97%; residual activity [24]: 81%; residual activity [25]: 100%; residual activity [26]: 100%; residual activity [27]: 100%; residual activity [28]: 100%; residual activity [29]: 100%; residual activity [30]: 100%; residual activity [31]: 93%; residual activity [32]: 100%; residual activity [33]: 100%; residual activity [34]: 100%; residual activity [35]: 100%; residual activity [36]: 52%; residual activity [37]: 100%; inhibition [38]: 99.2%
2 | CNCc1ccccc1-c1csc([C@@H](C)Nc2nc(C)nc3cc(OC)c(OC)cc23)c1 [BAY-293] | 936 nM | 956 nM | 92% | 99% | 82% | 93% | 76% | 76% | 97% | 100% | 97% | 86% | 79% | 89% | 100% | 99% | 100% | 76% | 96% | 98% | Ki ([2]; read-out: pKi (converted)): 944 nM; residual activity [21]: 92%; residual activity [22]: 59%; residual activity [23]: 91%; residual activity [24]: 85%; residual activity [25]: 100%; residual activity [26]: 93%; residual activity [27]: 98%; residual activity [28]: 86%; residual activity [29]: 100%; residual activity [30]: 100%; residual activity [31]: 76%; residual activity [32]: 80%; residual activity [33]: 100%; residual activity [34]: 100%; residual activity [35]: 100%; residual activity [36]: 61%; residual activity [37]: 100%; inhibition [38]: 98.5%
